Here are results for three compounds from patent US9603896B2, “Peptide compounds and methods of production and use thereof” (priority 2012, dated 2017).

Like-named read-outs stand apart in the source and are kept apart here. Square brackets hold non-standard residues; d marks the D form. Peptide text beside a SMILES is read from it. AEEA = NCCOCCOCC(=O)O

One assay relates to swine skin. As to the kind of experiment: Swine full thickness excisional dermal wound model. Format: in vivo. As to conditions: for Mean Wound Healing (%): topical 3 mg/ml, 0.20 ml per wound daily. As for the experimental part:
In this Example, peptide compounds of the presently disclosed and claimed inventive concept(s) were evaluated as to their activity on the dermal wound healing process in a clinically relevant swine full thickness excisional wound model. Three different peptide formulations (Group B, Peptide 95-122 (SEQ ID NO:26); Group C, Peptide 120-146WH (SEQ ID NO:31); and Group D, Peptide 120-146QH-5RMP (SEQ ID NO:33)) were each evaluated at the same concentration (3 mg/ml). Sterile saline served as the control (Group A).
Full thickness excisional wounds were induced on the dorsum of swine (N=3) using a 1.0 cm biopsy punch. Treatments were administered (0.20 ml) to each wound (N=6 wounds per group), and the wounds were dressed with standard occlusive dressing ([…]™, 3M Corporation, St. Paul, Minn.). Treatments were reapplied daily and dressings changed. Clinical wound healing observations and wound area (2 mm) measurements were performed on days 0, 3, 5, 7, 10, and 14 post-wounding. Wound area (2 mm) data were expressed as percentage (%) of wound healing. Animals were terminated on day 14 with wounds harvested and processed for histological evaluation. […] All peptide formulation treatment groups healed faster with greater rate of closure and re-epithelialization over time, as compared to the saline control (Group A).

Assay [1] deals with Pseudomonas aeruginosa ATCC® 27853™. Format: cell-based. As to conditions: for Effects of Peptide Compounds on Pseudomonas aeruginosa ATCC ® 27853 ™: Table 6, 5 × 10^3 CFU/ml unless italicized = 1 × 10^5 CFU/ml. As for the experimental part:
(§1) The three peptide compounds BCC01-5RMP (SEQ ID NO:21), BCC02-5RMP (SEQ ID NO:22), and BCC03-5RMP (SEQ ID NO:23) were assayed for in vitro bactericidal activity against Pseudomonas aeruginosa, Escherichia coli, Salmonella typhimurium, and Acinetobacter baumannii. […] The CFU remaining at the end of 60 to 180 minute incubation was determined, and the data plotted as a log reduction in CFU/ml.
(§2) Tables 4-6 show the results of various peptides and peptide compounds against P. aeruginosa and E. coli strains. Tables 4 and 5 show the results of an investigation of the effects of peptide or peptide compounds BCC03-5RMP (SEQ ID NO:23), BCC03-MP (SEQ ID NO:24) and BCC03-5R (SEQ ID NO:20) against P. aeruginosa ATCC® strain 27853™ and E. coli ATCC® strain 25922™ (American Type Culture Collection, Manassas, Va.). […] Table 6 compares the activity of several other compounds, including the “5R” versions of BCC01, i.e., SEQ ID NO:18 (which comprises SEQ ID NO:1 with five additional arginines), the “5R” version of BCC02 (i.e., SEQ ID NO:19, which comprises SEQ ID NO:2 with five additional arginines), and BCC03-5RMP (SEQ ID NO:23), and BCC03-MP (SEQ ID NO:24, i.e., without the five additional R residues). The data generally indicate the superiority of BCC03-5RMP (SEQ ID NO:23) against E. coli, and the superiority of the 5R or 5RMP versions of the peptide over the “AEEA only” peptide against P. aeruginosa.
For FIGS. 10-13, in vitro bactericidal assays were performed using a starting inoculum of 1×10^6 CFU/ml of the bacterial suspension. The CFU remaining at the end of the 60-180 minute incubation was determined, and the data was plotted as log reduction in CFU/ml.
In particular, each of the test peptides (CAP37 peptides 120-146WR, 120-146WH, and 95-122 (SEQ ID NOs: 30, 31, and 26, respectively)) was used at 25, 12.5, 6.25, and 3.12 μM. Gentamicin was used at 4 μg/ml. 1×10^6/ml Acinetobacter baumannii ATCC® BAA-747″ or Pseudomonas aeruginosa ATCC® 27853™ (American Type Culture Collection, Manassas, Va.) were incubated with the peptides, negative buffer control (tryptone saline), and positive control gentamicin at pH 5.5 or 7.2. A 60 minute incubation was used for Acinetobacter baumannii ATCC® BAA747™, while a 180 minute incubation was used for Pseudomonas aeruginosa ATCC® 27853™. 50 μl aliquots were plated out on agar plates and incubated overnight. Colony forming units were counted after overnight incubation and CFU/ml calculated.
For FIG. 14, 1×10^6/ml Pseudomonas aeruginosa ATCC® 27853™ were incubated with each of the test peptides (CAP37 peptides 120-146WR, 120-146WH, 120-146QR, 120-146QH, 120-146QR-5RMP, and 120-146QH-5RMP (SEQ ID NOs: 30, 31, 28, 29, 32, and 33, respectively)) at 150, 75, and 37.5 μg/ml, or negative buffer control (tryptone saline), for 180 minutes at pH 5.5. 50 μl aliquots were plated out on agar plates and incubated overnight. Colony forming units were counted after overnight incubation and CFU/ml calculated.

The subject of assay [2] is E. coli ATCC® strain 25922™. Type of assay: cell-based, Escherichia coli. Also noted: Effects of Peptide Compounds on Escherichia coli ATCC ® 25922 ™: unit not given here. Particulars: Table 6, 5 × 10^3 CFU/ml unless italicized = 1 × 10^5 CFU/ml. As for the experimental part: as §1, §2
Setting [3] is: wounds harvested day 14, 3 mg/ml topical.

Take `CC(C)C[C@H](NC(=O)[C@H](CCCNC(=N)N)NC(=O)CNC(=O)CNC(=O)[C@H](CO)NC(=O)[C@H](Cc1c[nH]cn1)NC(=O)[C@H](CCC(N)=O)NC(=O)[C@H](CO)NC(=O)CNC(=O)[C@H](Cc1c[nH]c2ccccc12)NC(=O)CNC(=O)[C@H](C)NC(=O)[C@@H](NC(=O)[C@H](CCC(N)=O)NC(=O)[C@H](CS)NC(=O)[C@H](CCCNC(=N)N)NC(=O)[C@@H](NC(=O)CNC(=O)[C@H](CCCNC(=N)N)NC(=O)[C@H](CCCNC(=N)N)NC(=O)[C@H](CCCNC(=N)N)NC(=O)[C@H](CCCNC(=N)N)NC(=O)COCCOCCNC(=O)COCCOCCN)[C@@H](C)O)C(C)C)C(=O)N[C@@H](CO)C(=O)N[C@@H](CCCNC(=N)N)C(=O)N[C@@H](Cc1ccccc1)C(=O)N1CCC[C@H]1C(=O)N[C@@H](CCCNC(=N)N)C(=O)N[C@@H](Cc1ccccc1)C(=O)N[C@H](C(=O)N[C@@H](CC(N)=O)C(=O)N[C@H](C(=O)N[C@@H](CCCNC(=N)N)C(=O)O)C(C)C)C(C)C` [120-146QH-5RMP] (H-[AEEA][AEEA]RRRRGTRCQVAGWGSQHSGGRLSRFPRFVNVR-OH): the “Mean Wound Healing (%)” value in the assay with swine skin (Day 0) is on record as 0.0%; with swine skin (Day 3), 22.5%; in the assay on swine skin (Day 5), 34.1%; in the assay on swine skin (Day 7) it was 64.1%; with swine skin (Day 10), 93.7%; with swine skin (Day 14), 98.0%. Moreover, the “histology: epidermal resurfacing and maturation vs saline control” value in the assay on swine skin (day 14 post-wounding) is “greater extent of epidermal resurfacing and maturation of the epidermis”. Further, the “dermal wound healing vs saline” value in the assay on swine skin (topically at 3 mg/ml, over 14 days) is listed as “accelerate dermal wound healing”. Also, the “Histopathology Results, Mean Angiogenesis” value with swine skin (setting [3]) turned out to be 1.3. The “Histopathology Results, Mean Epithelization” value in the assay on swine skin (setting [3]) is recorded as 4.0. The “Histopathology Results, Mean Granulation” value in the assay on swine skin (setting [3]) is reported as 4.0. Besides, in the assay on swine skin (setting [3]), the “Histopathology Results, Mean Inflammation” value amounted to 0.5. Further, in assay [1] (pH 5.5, 180 minutes, 75 μg/ml), the “reduction in CFU (FIG. 14)” value is around 6 log.

Take `CC[C@H](C)[C@H](NC(=O)[C@H](CC(C)C)NC(=O)[C@H](C)NC(=O)CNC(=O)CNC(=O)[C@H](CS)NC(=O)[C@H](Cc1ccccc1)NC(=O)[C@H](Cc1c[nH]cn1)NC(=O)[C@H](CCCNC(=N)N)NC(=O)CNC(=O)[C@H](CCC(N)=O)NC(=O)[C@H](CC(N)=O)NC(=O)COCCOCCNC(=O)COCCOCCN)C(=O)N[C@@H](Cc1c[nH]cn1)C(=O)N[C@@H](C)C(=O)N[C@@H](CCCNC(=N)N)C(=O)N[C@@H](Cc1ccccc1)C(=O)N[C@H](C(=O)N[C@@H](CCSC)C(=O)N[C@H](C(=O)N[C@@H](C)C(=O)N[C@@H](C)C(=O)N[C@@H](CO)C(=O)N[C@@H](CO)C(=O)N[C@@H](Cc1ccccc1)C(=O)N[C@@H](CCC(N)=O)C(=O)O)[C@@H](C)O)C(C)C` [BCC03-MP] (H-[AEEA][AEEA]NQGRHFCGGALIHARFVMTAASSFQ-OH; N-terminus and C-terminus assumed): the “Effects of Peptide Compounds on Pseudomonas aeruginosa ATCC ® 27853 ™” value in assay [1] (6.25 μg/ml) is reported as −38.2; in assay [1] (12.5 μg/ml), -45.6; in assay [1] (25 μg/ml), −27.3; in assay [1] (50 μg/ml) it was −2.9; in assay [1] (100 μg/ml), 44.0; in assay [1] (200 μg/ml) it was 74.4. Besides, the “Effects of Peptide Compounds on Pseudomonas aeruginosa ATCC ® 27853 ™” value in assay [1] (400 μg/ml) was 92.8. In addition, the “Effects of Peptide Compounds on Escherichia coli ATCC ® 25922 ™” value (shortened to “Effects … on Escherichia coli ATCC ® 25922 ™”) in assay [2] (6.25 μg/ml) stood at 6.4; in assay [2] (12.5 μg/ml), 21.8; in assay [2] (25 μg/ml), 27.2; in assay [2] (50 μg/ml), 24.6; in assay [2] (100 μg/ml) it was 27.5; in assay [2] (200 μg/ml), 46.0. The “Effects … on Escherichia coli ATCC ® 25922 ™” value in assay [2] (400 μg/ml) was determined as 58.2.

In the case of “RRRRNQGRHFCGGALIHARFVMTAASCFQR (5-arginine peptide derivative of CAP37 peptide) [SEQ ID NO: 18 (Linear)]”, the “Effects of Peptide Compounds on Pseudomonas aeruginosa ATCC ® 27853 ™” value is given as 25.4 in assay [1] (0.137 μg/ml); 63.2 in assay [1] (0.5475 μg/ml); 87.9 in assay [1] (2.19 μg/ml); 99.5 in assay [1] (8.76 μg/ml); 100.0 in assay [1] (87.6 μg/ml). Also, the “Effects … on Escherichia coli ATCC ® 25922 ™” value came to 93.9 in assay [2] (43.8 μg/ml), 95.3 in assay [2] (87.6 μg/ml), 97.1 in assay [2] (175.2 μg/ml) and 100.0 in assay [2] (262.8 μg/ml).
